Where “and” joins values, the source holds several entries; their conditions need not be identical. Equal entries are not always repeated.
Test system: LAPC-4 xenografts
Assay: Fatty acid determination (GC-FID) in LAPC-4 xenograft experiment
Assay type: in vivo, mice
Settings: 10 mg/kg PO
Experimental: […] The fatty acid profile was next determined by gas chromatography (GC), coupled with a flame ionization detector (FID), using phosphatidylcholine C21:0 (Avanti Polar Lipids) as an internal standard. The GC model 5890 was from Agilent Technologies (Mississauga, ON, Canada). The capillary column used was a HP-88 (100 m × 0.25 mm, […], Agilent Technologies), and the carrier gas was helium at 1.5 mL/min. A total of 56 fatty acids were identified according to their retention time, using fatty acid mixtures as standards.

[1] = LAPC-4 tumor, 28 days (RM-581 group per Table S1)
[2] = LAPC-4 tumor, 28 days, Table S1

C#C[C@]1(O)CC[C@H]2[C@@H]3CCc4cc(OC)c(N5CCN(C(=O)[C@@H]6CCCN6C(=O)c6ccc7ccccc7n6)CC5)cc4[C@H]3CC[C@@]21C [RM-581]
S-FA, liver (28 days): 12.5 mg/g
S-FA, plasma (28 days): 1.10 µg/mL
S-FA, plasma, % vs CTL (28 days): +2.8%
S-FA, tumor (28 days): 8.15 mg/g
T-FA, liver (28 days): 34.5 mg/g
T-FA, liver, % vs CTL (28 days): +19.8%
T-FA, plasma (28 days): 3.71 µg/mL
T-FA, plasma, % vs CTL (28 days): +1.6%
T-FA, tumor (28 days): 24.5 mg/g
U-FA, liver (28 days): 21.9 mg/g
U-FA, plasma (28 days): 2.59 µg/mL
U-FA, plasma, % vs CTL (28 days): +1.6%
U-FA, tumor (28 days): 16.0 mg/g
Adrenic acid-1 (7c10c13c16c) 22:4, % vs CTL (LAPC-4 tumor, 28 days): +8.6%
Adrenic acid-1 (7c10c13c16c) 22:4, FA RM-581 (LAPC-4 tumor, 28 days): 0.380 mg/g
Adrenic acid-2 (4c7c10c13c16c) 22:5, % vs CTL (LAPC-4 tumor, 28 days): −12%
Adrenic acid-2 (4c7c10c13c16c) 22:5, FA RM-581 (LAPC-4 tumor, 28 days): 0.260 mg/g
Alpha-linolenic acid (9c12c15c) 18:3, FA RM-581 (LAPC-4 tumor, 28 days): 0.230 mg/g
Arachidonic (5c8c11c14c) 20:4, % vs CTL (LAPC-4 tumor, 28 days): −2.1%
Arachidonic (5c8c11c14c) 20:4, FA RM-581 (LAPC-4 tumor, 28 days): 2.150 mg/g
Cervonic acid 22:6, % vs CTL (LAPC-4 tumor, 28 days): 0%
Cervonic acid 22:6, FA RM-581 (LAPC-4 tumor, 28 days): 0.530 mg/g
Dihomo-γ-linolenic acid (8c11c14c) 20:3, FA RM-581 (LAPC-4 tumor, 28 days): 0.580 mg/g
Dimethoxyhexadecanoic acid 16:0, % vs CTL (LAPC-4 tumor, 28 days): 0%
Dimethoxyhexadecanoic acid 16:0, FA RM-581 (LAPC-4 tumor, 28 days): 0.170 mg/g
Docosapentaenoic acid (7c10c13c16c19c) 22:5, % vs CTL (LAPC-4 tumor, 28 days): +17%
Docosapentaenoic acid (7c10c13c16c19c) 22:5, FA RM-581 (LAPC-4 tumor, 28 days): 0.140 mg/g
Lignoceric acid 24:0, % vs CTL (LAPC-4 tumor, 28 days): +23%
Lignoceric acid 24:0, FA RM-581 (LAPC-4 tumor, 28 days): 0.160 mg/g
Linoleic acid (9c12c) 18:2, FA RM-581 (LAPC-4 tumor, 28 days): 4.435 mg/g
Myristic acid 14:0, FA RM-581 (LAPC-4 tumor, 28 days): 0.275 mg/g
Nervonic acid (15c) 24:1, % vs CTL (LAPC-4 tumor, 28 days): +18%
Nervonic acid (15c) 24:1, FA RM-581 (LAPC-4 tumor, 28 days): 0.130 mg/g
Oleic acid (9c) 18:1, FA RM-581 (LAPC-4 tumor, 28 days): 4.920 mg/g
Palmitic acid 16:0, FA RM-581 (LAPC-4 tumor, 28 days): 5.095 mg/g
Palmitoleic acid (9c) 16:1, FA RM-581 (LAPC-4 tumor, 28 days): 1.035 mg/g
Stearic acid 18:0, % vs CTL (LAPC-4 tumor, 28 days): +3.5%
Stearic acid 18:0, FA RM-581 (LAPC-4 tumor, 28 days): 2.355 mg/g
Vaccenic acid (11c) 18:1, % vs CTL (LAPC-4 tumor, 28 days): +5.3%
Vaccenic acid (11c) 18:1, FA RM-581 (LAPC-4 tumor, 28 days): 0.690 mg/g
Adrenic acid-1 (7c10c13c16c) 22:4, % of Total FA [1]: 1.54%
Adrenic acid-2 (4c7c10c13c16c) 22:5, % of Total FA [1]: 1.07%
Alpha-linolenic acid (9c12c15c) 18:3, % of Total FA [1]: 0.94%
Arachidonic (5c8c11c14c) 20:4, % of Total FA [1]: 8.77%
Cervonic acid 22:6, % of Total FA [1]: 2.18%
Dihomo-γ-linolenic acid (8c11c14c) 20:3, % of Total FA [1]: 2.35%
Dimethoxyhexadecanoic acid 16:0, % of Total FA [1]: 0.68%
Docosapentaenoic acid (7c10c13c16c19c) 22:5, % of Total FA [1]: 0.57%
Lignoceric acid 24:0, % of Total FA [1]: 0.65%
Linoleic acid (9c12c) 18:2, % of Total FA [1]: 18.1%
Myristic acid 14:0, % of Total FA [1]: 1.12%
Nervonic acid (15c) 24:1, % of Total FA [1]: 0.52%
Oleic acid (9c) 18:1, % of Total FA [1]: 20.1%
Palmitic acid 16:0, % of Total FA [1]: 20.8%
Palmitoleic acid (9c) 16:1, % of Total FA [1]: 4.23%
Stearic acid 18:0, % of Total FA [1]: 9.61%
Vaccenic acid (11c) 18:1, % of Total FA [1]: 2.82%
Arachidic acid 20:0, FA RM-581 [2]: 0.05 mg/g
Arachidic acid 20:0, FA RM-581 % of total [2]: 0.20%
Behenic acid 22:0, FA RM-581 [2]: 0.09 mg/g
Behenic acid 22:0, FA RM-581 % of total [2]: 0.35%
Caproic acid 10:0, FA RM-581 [2]: 0 mg/g
Caproic acid 10:0, FA RM-581 % of total [2]: 0.02%
Caprylic acid 8:0, FA RM-581 [2]: 0 mg/g
Caprylic acid 8:0, FA RM-581 % of total [2]: 0%
Dimethoxyoctadecanoic acid 18:0, FA RM-581 [2]: 0.09 mg/g
Dimethoxyoctadecanoic acid 18:0, FA RM-581 % of total [2]: 0.38%
Dimethoxyoctadecenoic acid (9c) w9 18:1, FA RM-581 [2]: 0.07 mg/g
Dimethoxyoctadecenoic acid (9c) w9 18:1, FA RM-581 % of total [2]: 0.29%
Elaidic acid (9t) w9 18:1, FA RM-581 [2]: 0 mg/g
Elaidic acid (9t) w9 18:1, FA RM-581 % of total [2]: 0%
Erucic acid w9 22:1, FA RM-581 [2]: 0.025 mg/g
Erucic acid w9 22:1, FA RM-581 % of total [2]: 0.10%
FA (1c) w14 15:1, FA RM-581 [2]: 0 mg/g
FA (1c) w14 15:1, FA RM-581 % of total [2]: 0%
FA (5c) w10 15:1, FA RM-581 [2]: 0 mg/g
FA (5c) w10 15:1, FA RM-581 % of total [2]: 0%
FA (5t) w10 15:1, FA RM-581 [2]: 0 mg/g
FA (5t) w10 15:1, FA RM-581 % of total [2]: 0%
FA (7c) w10 17:1, FA RM-581 [2]: 0.05 mg/g
FA (7c) w10 17:1, FA RM-581 % of total [2]: 0.20%
FA (7t) w10 17:1, FA RM-581 [2]: 0.02 mg/g
FA (7t) w10 17:1, FA RM-581 % of total [2]: 0.09%
FA (8c11c14c17c) w3 20:4, FA RM-581 [2]: 0.04 mg/g
FA (8c11c14c17c) w3 20:4, FA RM-581 % of total [2]: 0.16%
FA (8c) w12 20:1, FA RM-581 [2]: 0 mg/g
FA (8c) w12 20:1, FA RM-581 % of total [2]: 0%
FA (9c12t) w6 18:2, FA RM-581 [2]: 0.02 mg/g
FA (9c12t) w6 18:2, FA RM-581 % of total [2]: 0.09%
FA (9t12c) w6 18:2, FA RM-581 [2]: 0 mg/g
FA (9t12c) w6 18:2, FA RM-581 % of total [2]: 0%
FA (9t12t15t) w3 18:3, FA RM-581 [2]: 0.01 mg/g
FA (9t12t15t) w3 18:3, FA RM-581 % of total [2]: 0.03%
FA (9t) w5 14:1, FA RM-581 [2]: 0.01 mg/g
FA (9t) w5 14:1, FA RM-581 % of total [2]: 0.03%
FA (9t) w13 22:1, FA RM-581 [2]: 0 mg/g
FA (9t) w13 22:1, FA RM-581 % of total [2]: 0%
FA (11c14c17c) w3 20:3, FA RM-581 [2]: 0 mg/g
FA (11c14c17c) w3 20:3, FA RM-581 % of total [2]: 0%
FA (11c14c) w6 20:2, FA RM-581 [2]: 0.08 mg/g
FA (11c14c) w6 20:2, FA RM-581 % of total [2]: 0.34%
FA (12c) w6 18:1, FA RM-581 [2]: 0 mg/g
FA (12c) w6 18:1, FA RM-581 % of total [2]: 0%
FA (13c16c19c) w3 22:3, FA RM-581 [2]: 0 mg/g
FA (13c16c19c) w3 22:3, FA RM-581 % of total [2]: 0%
FA (13c16c) w6 22:2, FA RM-581 [2]: 0.01 mg/g
FA (13c16c) w6 22:2, FA RM-581 % of total [2]: 0.04%
FA (13c) w5 18:1, FA RM-581 [2]: 0.02 mg/g
FA (13c) w5 18:1, FA RM-581 % of total [2]: 0.07%
Gamma-linolenic acid (6c9c12c) w6 18:3, FA RM-581 [2]: 0.05 mg/g
Gamma-linolenic acid (6c9c12c) w6 18:3, FA RM-581 % of total [2]: 0.19%
Gondoic acid (11c) w9 20:1, FA RM-581 [2]: 0.08 mg/g
Gondoic acid (11c) w9 20:1, FA RM-581 % of total [2]: 0.32%
Isobranched 17:0, FA RM-581 [2]: 0.02 mg/g
Isobranched 17:0, FA RM-581 % of total [2]: 0.08%
Lauric acid 12:0, FA RM-581 [2]: 0.02 mg/g
Lauric acid 12:0, FA RM-581 % of total [2]: 0.10%
Linolelaidic acid (9t12t) w6 18:2, FA RM-581 [2]: 0.03 mg/g
Linolelaidic acid (9t12t) w6 18:2, FA RM-581 % of total [2]: 0.14%
Myristoleic acid (9c) w5 14:1, FA RM-581 [2]: 0.02 mg/g
Myristoleic acid (9c) w5 14:1, FA RM-581 % of total [2]: 0.06%
Palmitelaidic acid (9t) w1 16:1, FA RM-581 [2]: 0 mg/g
Palmitelaidic acid (9t) w1 16:1, FA RM-581 % of total [2]: 0%
Pentadecanoic acid 15:0, FA RM-581 [2]: 0.04 mg/g
Pentadecanoic acid 15:0, FA RM-581 % of total [2]: 0.17%
Petroselaidic acid (6t) w12 18:1, FA RM-581 [2]: 0 mg/g
Petroselaidic acid (6t) w12 18:1, FA RM-581 % of total [2]: 0%
Petroselinic acid (7c-n11/6c-n12) w11/12 18:1, FA RM-581 [2]: 0 mg/g
Petroselinic acid (7c-n11/6c-n12) w11/12 18:1, FA RM-581 % of total [2]: 0%
Stearidonic acid (6c9c12c15c) w3 18:4, FA RM-581 [2]: 0 mg/g
Stearidonic acid (6c9c12c15c) w3 18:4, FA RM-581 % of total [2]: 0%
Timnodonic acid (5c8c11c14c17c) w3 20:5, FA RM-581 [2]: 0.025 mg/g
Timnodonic acid (5c8c11c14c17c) w3 20:5, FA RM-581 % of total [2]: 0.10%
Trans-vaccenic acid (11t) w7 18:1, FA RM-581 [2]: 0.03 mg/g
Trans-vaccenic acid (11t) w7 18:1, FA RM-581 % of total [2]: 0.13%
increase in linoleic acid level inside the tumors (LAPC-4 tumor, 10 mg/kg): 1.59 mg/g and ~ 5.7 mM
increase in oleic acid level inside the tumors (LAPC-4 tumor, 10 mg/kg): 1.26 mg/g and ~ 4.5 mM

From publication PMC10252594 (Cancers, 2023)
